Patent US12410152B2, “Oxazole and thioazole-type cullin ring ubiquitin ligase compounds and uses thereof” (Proxygen GmbH, priority 2019, dated 2025)

Tested on: KBM7 WT cells (global proteome)
Assay: Quantitative expression proteomics (TMT isobaric tagging), drug vs DMSO
Type: cell-based, human
Conditions: for number of proteins significantly downregulated (log2FC < -0.3), destabilized proteins / number of downregulated proteins known to be implicated in KBM7 proliferation (essential for KBM7 viability): KBM7 cells, 12 hours; for number of proteins significantly downregulated (log2FC < -0.3), destabilized proteins: ~10xEC50, 7,903 proteins quantified; for number of downregulated proteins known to be implicated in KBM7 proliferation (essential for KBM7 viability): essentiality from Hart et al. 2017
Excerpt: The mechanism by which the assayed molecules re-program a functional CRL4B complex based on the data shown could be that drug binding to CUL4B recruits a neo-substrate directly to the cullin backbone. Alternatively, drug binding could stabilize CUL4B function to boost time intervals where a functionally competent CUL4B complexes can be formed. Here, the word “functional” implies that the CUL4B backbone of this complex needs to be neddylated, and a CUL4B associated E2 ubiquitin-conjugating enzyme (UBE2G1) needs to be bound. FIG. 9 outlines one possible mechanism. Both predicted mechanisms of action would result in a functionally altered CRL4B complex, and thus an altered stability of drug-induced (neo-) substrates. In order to identify target proteins with a decreased abundance or, in other words, target proteins that become degraded by CRL4B after drug treatment, global proteome composition was measured using quantitative expression proteomics (TMT-labeling). In brief, KBM7 cells were drug treated for 12 hours, lysed, and subjected to isobaric tagging. Ensuing proteomics analysis quantified a total of 7,903 proteins at a minimum spectral count of 2. […] Data on essentiality are taken from Hart et al., G3, August 2017 (PMID: 28655737).
50×10^6 KBM7^WT cells per condition were collected, washed four times with ice-cold PBS, the supernatant aspirated and pellets snap-frozen in liquid N2. Each washed cell pellet was lysed separately in 40 μL of freshly prepared lysis buffer as previously described (see Mayor-Ruiz et al., Mol Cell 2019)
Offline Fractionation via RP-HPLC at high pH and 2D-RP/RP Liquid Chromatography Mass Spectrometry were performed as previously described (see Mayor-Ruiz et al., Mol Cell 2019).
Acquired raw data files were processed using the Proteome Discoverer 2.2.0 platform, utilizing the Sequest HT database search engine and Percolator validation software node (V3.04) to remove false positives with a false discovery rate (FDR) of 1% on peptide and protein level under strict conditions. Searches were performed with full tryptic digestion against the human SwissProt database v2017.06 with up to two allowed miscleavage sites. Oxidation (+15.9949 Da) of methionine was set as variable modification, whilst carbamidomethylation (+57.0214 Da) of cysteine residues and TMT 6-plex labelling of peptide N-termini and lysine residues were set as fixed modifications. Data was searched with mass tolerances of ±10 ppm and ±0.02 Da on the precursor and fragment ions, respectively. Results were filtered to include peptide spectrum matches (PSMs) with Sequest HT cross-correlation factor (Xcorr) scores of […] and high peptide confidence assigned by Percolator. MS^2 signal-to-noise values (S/N) values of TMT reporter ions were used to estimate peptide/protein abundance changes. PSMs with precursor isolation interference values of ≥ 50% and average TMT-reporter ion S/N≤10 were excluded from quantitation. Only unique peptides were used for TMT quantitation as well as for TOP3 label-free quantitation. Isotopic impurity correction and TMT channel-normalization based on total peptide amount were applied. For statistical analysis and p-value calculation, the integrated ANOVA hypothesis test was used. TMT ratios with p-values below 0.01 were considered as significant. Only proteins with >1 peptide detected and >1 unique peptide detected were considered for further analysis. For the calling of destabilized proteins, a log 2 fold change threshold (drug/DMSO) of −0.3 was applied.
Comparison of overall proteome-wide changes in KBM7 cells treated with IC020772.1 (2.5 μM), IC021313.2 (7 μM) or T6938051 (3.5 μM) for 5 h and 12h, using quantitative proteomics based on isobaric tagging.
The protein names in Table 4, Table 5 and Table 6 refer to the protein names as provided by HUGO Gene Nomenclature Committee (HGNC) database. […]

SMILES: O=C(CSc1nc2ccccc2[nH]1)Nc1ccc(Cl)cn1 [IC021313.2]
- number of proteins significantly downregulated (log2FC < -0.3), destabilized proteins: 839
- number of downregulated proteins known to be implicated in KBM7 proliferation (essential for KBM7 viability): 183
- logFC (IC021313.2/DMSO) (protein AKAP11 (Q9UKA4), essential: false): −0.3004
- logFC (IC021313.2/DMSO) (protein ALKBH3 (Q96Q83-1), essential: false): −0.3129
- logFC (IC021313.2/DMSO) (protein ALKBH4 (Q9NXW9-1), essential: false): −0.3111
- logFC (IC021313.2/DMSO) (protein ATXN7L3B (Q96GX2), essential: false): −0.3111
- logFC (IC021313.2/DMSO) (protein BMT2 (Q1RMZ1), essential: false): −0.3111
- logFC (IC021313.2/DMSO) (protein C10orf88 (Q9H8K7), essential: false): −0.3004
- logFC (IC021313.2/DMSO) (protein CCNC (P24863-1), essential: false): −0.3129
- logFC (IC021313.2/DMSO) (protein CHMP4B (Q9H444), essential: true): −0.3129
- logFC (IC021313.2/DMSO) (protein CIT (O14578-4), essential: false): −0.3147
- logFC (IC021313.2/DMSO) (protein CREB1 (P16220-1), essential: false): −0.3147
- logFC (IC021313.2/DMSO) (protein CUEDC2 (Q9H467), essential: false): −0.3129
- logFC (IC021313.2/DMSO) (protein DCUN1D4 (Q92564-3), essential: false): −0.3004
- logFC (IC021313.2/DMSO) (protein DGCR14 (Q96DF8), essential: true): −0.3129
- logFC (IC021313.2/DMSO) (protein DSG2 (Q14126), essential: false): −0.3111
- logFC (IC021313.2/DMSO) (protein EIF4B (P23588-1), essential: false): −0.3129
- logFC (IC021313.2/DMSO) (protein ENTPD6 (O75354-1), essential: false): −0.3004
- logFC (IC021313.2/DMSO) (protein EPN1 (Q9Y6I3-2), essential: false): −0.3022
- logFC (IC021313.2/DMSO) (protein FADS1 (O60427-1), essential: false): −0.3147
- logFC (IC021313.2/DMSO) (protein FAM122A (Q96E09), essential: true): −0.3022
- logFC (IC021313.2/DMSO) (protein GTF2H1 (P32780-1), essential: true): −0.3022
- logFC (IC021313.2/DMSO) (protein GUCY1A3 (Q02108-1), essential: false): −0.3129
- logFC (IC021313.2/DMSO) (protein KIF15 (Q9NS87-1), essential: false): −0.3022
- logFC (IC021313.2/DMSO) (protein NCAPD2 (Q15021), essential: true): −0.3094
- logFC (IC021313.2/DMSO) (protein NDRG3 (Q9UGV2-1), essential: false): −0.3111
- logFC (IC021313.2/DMSO) (protein NUFIP1 (Q9UHK0), essential: true): −0.3129
- logFC (IC021313.2/DMSO) (protein PFDN5 (Q99471-1), essential: false): −0.3111
- logFC (IC021313.2/DMSO) (protein PHF8 (Q9UPP1-1), essential: false): −0.3022
- logFC (IC021313.2/DMSO) (protein PLSCR1 (O15162-1), essential: false): −0.3111
- logFC (IC021313.2/DMSO) (protein PO1A (Q8NBT0-1), essential: false): −0.3022
- logFC (IC021313.2/DMSO) (protein PPIL4 (Q8WUA2), essential: false): −0.3004
- logFC (IC021313.2/DMSO) (protein PSD4 (Q8NDX1-1), essential: false): −0.3022
- logFC (IC021313.2/DMSO) (protein PUS3 (Q9BZE2), essential: false): −0.3022
- logFC (IC021313.2/DMSO) (protein PVR (P15151-1), essential: false): −0.3004
- logFC (IC021313.2/DMSO) (protein PYM1 (Q9BRP8-1), essential: false): −0.3022
- logFC (IC021313.2/DMSO) (protein RAD54L (Q92698), essential: false): −0.3004
- logFC (IC021313.2/DMSO) (protein RASSF5 (Q8WWW0-2), essential: false): −0.3022
- logFC (IC021313.2/DMSO) (protein RPS17 (P08708), essential: true): −0.3094
- logFC (IC021313.2/DMSO) (protein SKP2 (Q13309-1), essential: false): −0.3111
- logFC (IC021313.2/DMSO) (protein SLC10A4 (Q96EP9), essential: false): −0.3111
- logFC (IC021313.2/DMSO) (protein SLCO4A1 (Q96BD0-1), essential: false): −0.3004
- logFC (IC021313.2/DMSO) (protein SUV39H1 (O43463-2), essential: false): −0.3004
- logFC (IC021313.2/DMSO) (protein TANC2 (Q9HCD6-2), essential: false): −0.3129
- logFC (IC021313.2/DMSO) (protein TFAP4 (Q01664), essential: true): −0.3094
- logFC (IC021313.2/DMSO) (protein USP12 (O75317), essential: false): −0.3004
- logFC (IC021313.2/DMSO) (protein WDR76 (Q9H967), essential: false): −0.3004
- logFC (IC021313.2/DMSO) (protein ZNF770 (Q6IQ21), essential: false): −0.3004
- logFC (IC021313.2/DMSO) (protein ZWILCH (Q9H900-1), essential: false): −0.3022

SMILES: Cc1ccc(C(=O)N2CSCC2C(=O)N=c2[nH]cc(C)s2)o1 (stereo not drawn) [Compound T6938051]
- number of proteins significantly downregulated (log2FC < -0.3), destabilized proteins: 793
- number of downregulated proteins known to be implicated in KBM7 proliferation (essential for KBM7 viability): 142
- number of proteins with log2FC < −0.3 (T6938051 vs DMSO): T6938051: 793 proteins
- number of essential proteins among proteins with log2FC < −0.3 (T6938051 vs DMSO, essential = implicated in KBM7 proliferation): log2FC < −0.3 (142 essential proteins)
- log2FC (T6938051/DMSO) (protein ABCF2 (accession Q9UG63-2), expression proteomics, drug vs DMSO, essential: false): −0.3004
